Measurements taken from ChEMBL document CHEMBL3045812, “Synthesis of fatty acid Schiff base esters as potential antimicrobial and chemotherapeutic agents” (Med Chem Res, 2013).
In brackets after ≈: the same amount, converted by molar mass. Activity calls are given as the source filed them. No cut-off for these calls is given here.

Legend:
HeLa = assay: Cytotoxicity against Homo sapiens (human) HeLa cells by tetrazolium-reduction assay; format: functional, cell-based
Staphylococcus aureus [1] = assay: Antibacterial activity against Staphylococcus aureus MLS16 MTCC 2940 after 24 hr by microtiter broth dilution method; format: functional
MDA-MB-231 = assay: Cytotoxicity against Homo sapiens (human) MDA-MB-231 cells by tetrazolium-reduction assay; format: functional, cell-based
Candida albicans [2] = assay: Antifungal activity against Candida albicans MTCC 7315 at 1.4 to 300 ug/ml after 24 hr by microtiter broth dilution method; format: functional, organism-based
Staphylococcus aureus [3] = assay: Antibacterial activity against Staphylococcus aureus MTCC 96 after 24 hr by microtiter broth dilution method; format: functional; settings: MTCC 96, 24 h
Candida albicans [4] = assay: Antifungal activity against Candida albicans MTCC 3017 at 1.4 to 300 ug/ml after 24 hr by microtiter broth dilution method; format: functional, organism-based
[Candida] aaseri [5] = Antifungal activity against Candida aaseri MTCC 1962 at 1.4 to 300 ug/ml after 24 hr by microtiter broth dilution method; format: functional, organism-based
Candida albicans [6] = assay: Antifungal activity against Candida albicans MTCC 3958 at 1.4 to 300 ug/ml after 24 hr by microtiter broth dilution method; format: functional, organism-based
A549 = assay: Cytotoxicity against Homo sapiens (human) A549 cells by tetrazolium-reduction assay; format: functional, cell-based
Candida parapsilosis [7] = assay: Antifungal activity against Candida parapsilosis MTCC 1744 at 1.4 to 300 ug/ml after 24 hr by microtiter broth dilution method; format: functional, organism-based
Candida albicans [8] = assay: Antifungal activity against Candida albicans MTCC 227 at 1.4 to 300 ug/ml after 24 hr by microtiter broth dilution method; format: functional, organism-based
MCF7 = assay: Cytotoxicity against Homo sapiens (human) MCF7 cells by tetrazolium-reduction assay; format: functional, cell-based
Nakaseomyces glabratus [9] = assay: Antifungal activity against Candida glabrata MTCC 3019 at 1.4 to 300 ug/ml after 24 hr by microtiter broth dilution method; format: functional, organism-based
Candida albicans [10] = assay: Antifungal activity against Candida albicans MTCC 183 at 1.4 to 300 ug/ml after 24 hr by microtiter broth dilution method; format: functional, organism-based
Candida albicans [11] = assay: Antifungal activity against Candida albicans MTCC 3018 at 1.4 to 300 ug/ml after 24 hr by microtiter broth dilution method; format: functional, organism-based
Bacillus subtilis = assay: Antibacterial activity against Bacillus subtilis MTCC 121 after 24 hr by microtiter broth dilution method; format: functional
HepG2 = assay: Cytotoxicity against Homo sapiens (human) HepG2 cells by tetrazolium-reduction assay; format: functional, cell-based
N2a = assay: Cytotoxicity against Mus musculus (mouse) Neuro2a cells by tetrazolium-reduction assay; format: functional, cell-based
Candida albicans [12] = assay: Antifungal activity against Candida albicans MTCC 854 at 1.4 to 300 ug/ml after 24 hr by microtiter broth dilution method; format: functional, organism-based
Candida albicans [13] = assay: Antifungal activity against Candida albicans MTCC 1637 at 1.4 to 300 ug/ml after 24 hr by microtiter broth dilution method; format: functional, organism-based
Pseudomonas aeruginosa = assay: Antibacterial activity against Pseudomonas aeruginosa MTCC 2453 after 24 hr by microtiter broth dilution method; format: functional
Candida parapsilosis [14] = assay: Antifungal activity against Candida parapsilosis MTCC 1744 after 24 hr by microtiter broth dilution method; format: functional
Candida albicans [15] = assay: Antifungal activity against Candida albicans MTCC 854 after 24 hr by microtiter broth dilution method; format: functional
Pichia sporocuriosa = assay: Antifungal activity against Issatchenkia hanoiensis MTCC 4755 after 24 hr by microtiter broth dilution method; format: functional; settings: MTCC 4755, 24 h
Candida albicans [16] = assay: Antifungal activity against Candida albicans MTCC 3018 after 24 hr by microtiter broth dilution method; format: functional; settings: MTCC 3018, 24 h
Candida albicans [17] = assay: Antifungal activity against Candida albicans MTCC 3017 after 24 hr by microtiter broth dilution method; format: functional
Candida albicans [18] = assay: Antifungal activity against Candida albicans MTCC 227 after 24 hr by microtiter broth dilution method; format: functional; settings: MTCC 227, 24 h
Pichia kudriavzevii = assay: Antifungal activity against Pichia kudriavzevii MTCC 3020 after 24 hr by microtiter broth dilution method; format: functional; settings: MTCC 3020, 24 h
[Candida] aaseri [19] = Antifungal activity against Candida aaseri MTCC 1962 after 24 hr by microtiter broth dilution method; format: functional; settings: Yamadazyma aaseri, MTCC 1962, 24 h
Candida albicans [20] = assay: Antifungal activity against Candida albicans MTCC 1637 after 24 hr by microtiter broth dilution method; format: functional
Candida albicans [21] = assay: Antifungal activity against Candida albicans MTCC 183 after 24 hr by microtiter broth dilution method; format: functional; settings: MTCC 183, 24 h
Candida albicans [22] = assay: Antifungal activity against Candida albicans MTCC 7315 after 24 hr by microtiter broth dilution method; format: functional; settings: MTCC 7315, 24 h
Nakaseomyces glabratus [23] = assay: Antifungal activity against Candida glabrata MTCC 3019 after 24 hr by microtiter broth dilution method; format: functional; settings: MTCC 3019, 24 h
Candida albicans [24] = assay: Antifungal activity against Candida albicans MTCC 3958 after 24 hr by microtiter broth dilution method; format: functional; settings: MTCC 3958, 24 h
Micrococcus luteus = assay: Antibacterial activity against Micrococcus luteus MTCC 2470 at 1.4 to 300 ug/ml after 24 hr by microtiter broth dilution method; format: functional, organism-based
Escherichia coli = assay: Antibacterial activity against Escherichia coli MTCC 739 at 1.4 to 300 ug/ml after 24 hr by microtiter broth dilution method; format: functional, organism-based
Raoultella planticola = assay: Antibacterial activity against Raoultella planticola MTCC 530 at 1.4 to 300 ug/ml after 24 hr by microtiter broth dilution method; format: functional, organism-based
[25] = Homo sapiens, MCF7, read-out: IC50
[26] = Lodderomyces parapsilosis, MTCC 1744, 24 h

| Compound | Activity (HeLa) | IC50 (MDA-MB-231) [µM] | MIC (Staphylococcus aureus [3]) [µg/mL] | Activity (A549) | MIC (Bacillus subtilis) | Activity (HepG2) | Activity (N2a) | MIC (Pichia sporocuriosa) [µg/mL] | MIC (Candida albicans [16]) [µg/mL] | MIC (Candida albicans [18]) [µg/mL] | MIC (Pichia kudriavzevii) [µg/mL] | MIC ([Candida] aaseri [19]) [µg/mL] | MIC (Candida albicans [21]) [µg/mL] | MIC (Candida albicans [22]) [µg/mL] | MIC (Nakaseomyces glabratus [23]) [µg/mL] | MIC (Candida albicans [24]) [µg/mL] | Activity (Micrococcus luteus) | MIC (Staphylococcus aureus [1]; MLS16 MTCC 2940, 24 h) [µg/mL] | Activity (Escherichia coli) | Activity (Raoultella planticola) | also measured |
| --- | --- | --- | --- | --- | --- | --- | --- | --- | --- | --- | --- | --- | --- | --- | --- | --- | --- | --- | --- | --- | --- |
| Oc1ccc(/C=N/Cc2cccnc2)cc1 | inactive | 16.9 | 75 (≈ 353 µM) | inactive | inactive | inactive | inactive | – | – | – | – | – | – | – | – | – | – | – | – | – | MIC (Staphylococcus aureus [1]): inactive; Activity (Candida albicans [2]): inactive; Activity (Candida albicans [4]): inactive; Activity ([Candida] aaseri [5]): inactive; Activity (Candida albicans [6]): inactive; Activity (Candida parapsilosis [7]): inactive; Activity (Candida albicans [8]): inactive; IC50 (MCF7; [25]): 12 µM; Activity (Nakaseomyces glabratus [9]): inactive; Activity (Candida albicans [10]): inactive; Activity (Candida albicans [11]): inactive; Activity (Candida albicans [12]): inactive; Activity (Candida albicans [13]): inactive; MIC (Pseudomonas aeruginosa): inactive |
| OC(Cn1cncn1)(Cn1cncn1)c1ccc(F)cc1F [FLUCONAZOLE] | – | – | – | – | – | – | – | 64 (≈ 209 µM) | 32 (≈ 104 µM) | 32 (≈ 104 µM) | 128 (≈ 418 µM) | 64 (≈ 209 µM) | 32 (≈ 104 µM) | 32 (≈ 104 µM) | 64 (≈ 209 µM) | 64 (≈ 209 µM) | – | – | – | – | MIC (Candida parapsilosis [14]; [26]): 16 µg/mL (≈ 52.2 µM); MIC (Candida albicans [15]; MTCC 854, 24 h): 32 µg/mL (≈ 104 µM); MIC (Candida albicans [17]; MTCC 3017, 24 h): 64 µg/mL (≈ 209 µM); MIC (Candida albicans [20]; MTCC 1637, 24 h): 64 µg/mL (≈ 209 µM) |
| CCCCCCCCCC(=O)Oc1ccc(/C=N/Cc2cccnc2)cc1 | inactive | – | 37.5 (≈ 102 µM) | inactive | inactive | inactive | inactive | 75 (≈ 205 µM) | 75 (≈ 205 µM) | 300 (≈ 819 µM) | 150 (≈ 409 µM) | 75 (≈ 205 µM) | 300 (≈ 819 µM) | 300 (≈ 819 µM) | 150 (≈ 409 µM) | 300 (≈ 819 µM) | inactive | 300 (≈ 819 µM) | inactive | inactive | MIC (Candida parapsilosis [14]; [26]): 150 µg/mL (≈ 409 µM); MIC (Candida albicans [15]; MTCC 854, 24 h): 300 µg/mL (≈ 819 µM); MIC (Candida albicans [17]): inactive; MIC (Candida albicans [20]; MTCC 1637, 24 h): 300 µg/mL (≈ 819 µM); MIC (Pseudomonas aeruginosa; MTCC 2453, 24 h): 75 µg/mL (≈ 205 µM) |
| CCCCCCCC(=O)Oc1ccc(/C=N/Cc2cccnc2)cc1 | inactive | 15.8 | 37.5 (≈ 111 µM) | inactive | – | inactive | inactive | 300 (≈ 886 µM) | 300 (≈ 886 µM) | 150 (≈ 443 µM) | 150 (≈ 443 µM) | 300 (≈ 886 µM) | 150 (≈ 443 µM) | 150 (≈ 443 µM) | 150 (≈ 443 µM) | 150 (≈ 443 µM) | inactive | 300 (≈ 886 µM) | inactive | inactive | MIC (Candida parapsilosis [14]): inactive; MIC (Candida albicans [15]): inactive; MIC (Candida albicans [17]): inactive; IC50 (MCF7; [25]): 12 µM; MIC (Candida albicans [20]): inactive; MIC (Bacillus subtilis; MTCC 121, 24 h): 300 µg/mL (≈ 886 µM); MIC (Pseudomonas aeruginosa; MTCC 2453, 24 h): 300 µg/mL (≈ 886 µM) |
| CCCCCCCCCCCCCCCCCC(=O)Oc1ccc(/C=N/Cc2cccnc2)cc1 | inactive | 11.5 | 300 (≈ 627 µM) | inactive | inactive | inactive | inactive | – | – | – | – | – | – | – | – | – | inactive | 300 (≈ 627 µM) | inactive | inactive | Activity (Candida albicans [2]): inactive; Activity (Candida albicans [4]): inactive; Activity ([Candida] aaseri [5]): inactive; Activity (Candida albicans [6]): inactive; Activity (Candida parapsilosis [7]): inactive; Activity (Candida albicans [8]): inactive; IC50 (MCF7; mcf7): Not Active; Activity (Nakaseomyces glabratus [9]): inactive; Activity (Candida albicans [10]): inactive; Activity (Candida albicans [11]): inactive; Activity (Candida albicans [12]): inactive; Activity (Candida albicans [13]): inactive; MIC (Pseudomonas aeruginosa; MTCC 2453, 24 h): 300 µg/mL (≈ 627 µM) |
